PubChem BioAssay (NCI)
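GI50 = concentration required for 50% inhibition of growth. TGI denotes the concentration required for complete inhibition of growth.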

Columns and labels:
Test in all cases: inhibition of tumour cell growth, NCI panel, 384-well format
[1] = tested on: OVCAR-4 ovarian
[2] = tested on: MCF7 breast
[3] = tested on: COLO 205 colon
[4] = tested on: A549 NSCLC
[5] = tested on: HCT-15 colon
[6] = tested on: A498 renal
[7] = tested on: OVCAR-3 ovarian
[8] = tested on: HOP-92 NSCLC
[9] = tested on: SNB-19 CNS
[10] = tested on: HCC-2998 colon
[11] = tested on: SK-MEL-5 melanoma
[12] = tested on: M14 melanoma
[13] = tested on: TK-10 renal
[14] = tested on: ACHN renal
[15] = tested on: DU-145 prostate
[16] = tested on: UO-31 renal
[17] = tested on: IGROV1 ovarian
[18] = tested on: UACC-62 melanoma
[19] = tested on: SN12C renal
[20] = tested on: HCT-116 colon
[21] = tested on: OVCAR-8 ovarian
[22] = tested on: MDA-MB-468 breast
[23] = tested on: CCRF-CEM leukemia
[24] = tested on: SF-295 CNS
[25] = tested on: HT29 colon
[26] = tested on: UACC-257 melanoma
[27] = tested on: HS 578T breast
[28] = tested on: KM12 colon
[29] = tested on: SF-539 CNS
[30] = tested on: CAKI-1 renal
[31] = tested on: NCI-H226 lung
[32] = tested on: NCI-H460 NSCLC
[33] = tested on: NCI-H522 lung
[34] = tested on: PC-3 prostate
[35] = tested on: MALME-3M melanoma
[36] = tested on: BT-549 breast
[37] = tested on: LOX IMVI melanoma
[38] = tested on: NCI-H23 lung
[39] = tested on: SNB-75 CNS
[40] = tested on: SK-OV-3 ovarian
[41] = tested on: SF-268 CNS
[42] = tested on: EKVX NSCLC
[43] = tested on: HOP-62 NSCLC
[44] = tested on: MDA-MB-435 melanoma
[45] = tested on: SW-620 colon
[46] = tested on: SK-MEL-28 melanoma
[47] = tested on: T-47D breast
[48] = tested on: 786-0 renal
[49] = tested on: HL-60(TB) leukemia
[50] = tested on: K-562 leukemia
[51] = tested on: RXF 393 renal
[52] = tested on: U251 glioblastoma
[53] = tested on: RPMI-8226 leukemia
[54] = tested on: NCI/ADR-RES ovarian
[55] = tested on: NCI-H322M lung
[56] = tested on: MDA-MB-231 breast
[57] = tested on: OVCAR-5 ovarian
[58] = tested on: MOLT-4 leukemia

Q: Which results are given for `C[C@H]1COCCN1c1cc(C2(S(=O)(=O)C3CC3)CC2)nc(-c2ccc(NC(=S)NCCO)cc2)n1`?
A: GI50 [1]: 31.8 nM; TGI [1]: 340 nM; GI50 [2]: < 10 nM; TGI [2]: 5510 nM; GI50 [3]: 19.6 nM; TGI [3]: 3340 nM; GI50 [4]: 28.9 nM; TGI [4]: 1410 nM; GI50 [5]: 126 nM; TGI [5]: 86300 nM; GI50 [6]: < 10 nM; TGI [6]: 53.1 nM; GI50 [7]: 38 nM; TGI [7]: 6600 nM; GI50 [8]: 25.7 nM; TGI [8]: 601 nM; GI50 [9]: 100 nM; TGI [9]: 50200 nM; GI50 [10]: 98.6 nM; TGI [10]: 18600 nM; GI50 [11]: 11.8 nM; TGI [11]: 58.5 nM; GI50 [12]: 20.7 nM; TGI [12]: 1830 nM; GI50 [13]: 92.6 nM; TGI [13]: 900 nM; GI50 [14]: 55.1 nM; TGI [14]: 11800 nM; GI50 [15]: 59.1 nM; TGI [15]: 18800 nM; GI50 [16]: 121 nM; TGI [16]: 14000 nM; GI50 [17]: < 10 nM; TGI [17]: 41.9 nM; GI50 [18]: 15 nM; TGI [18]: 100 nM; GI50 [19]: 18.4 nM; TGI [19]: 12200 nM; GI50 [20]: 119 nM; TGI [20]: 16500 nM; GI50 [21]: 53.4 nM; TGI [21]: 12700 nM; GI50 [22]: < 10 nM; TGI [22]: 31.9 nM; GI50 [23]: 20.6 nM; TGI [23]: 1630 nM; GI50 [24]: 34.4 nM; TGI [24]: 335 nM; GI50 [25]: 79.3 nM; TGI [25]: 15800 nM; GI50 [26]: 46.3 nM; TGI [26]: 827 nM; GI50 [27]: < 10 nM; TGI [27]: 35.5 nM; GI50 [28]: 27.8 nM; TGI [28]: 17600 nM; GI50 [29]: 29.7 nM; TGI [29]: 598 nM; GI50 [30]: 17.8 nM; TGI [30]: 214 nM; GI50 [31]: 19.1 nM; TGI [31]: 101 nM; GI50 [32]: < 10 nM; TGI [32]: 11500 nM; GI50 [33]: < 10 nM; TGI [33]: 6640 nM; GI50 [34]: 16.7 nM; TGI [34]: 4390 nM; GI50 [35]: < 10 nM; TGI [35]: 84.3 nM; GI50 [36]: 16 nM; TGI [36]: 121 nM; GI50 [37]: 27.6 nM; TGI [37]: 640 nM; GI50 [38]: 83.1 nM; TGI [38]: 12500 nM; GI50 [39]: < 10 nM; TGI [39]: 50.5 nM; GI50 [40]: 20.1 nM; TGI [40]: 626 nM; GI50 [41]: < 10 nM; TGI [41]: 28.9 nM; GI50 [42]: 40.2 nM; TGI [42]: 1570 nM; GI50 [43]: 39.1 nM; TGI [43]: 540 nM; GI50 [44]: 41.5 nM; TGI [44]: 3460 nM; GI50 [45]: 130 nM; TGI [45]: 17800 nM; GI50 [46]: 26.2 nM; TGI [46]: 564 nM; GI50 [47]: < 10 nM; TGI [47]: 17.9 nM; GI50 [48]: 50.8 nM; TGI [48]: 12600 nM; GI50 [49]: 618 nM; TGI [49]: 15200 nM; GI50 [50]: 41.6 nM; TGI [50]: 16100 nM; GI50 [51]: 25.9 nM; TGI [51]: 310 nM; GI50 [52]: 57.2 nM; TGI [52]: 14900 nM; GI50 [53]: 12 nM; TGI [53]: 85.3 nM; GI50 [54]: 6720 nM; TGI [54]: > 100000 nM; GI50 [55]: 27.4 nM; TGI [55]: 15500 nM; GI50 [56]: 34.2 nM; TGI [56]: > 100000 nM; GI50 [57]: 51.8 nM; TGI [57]: 7110 nM; GI50 [58]: < 10 nM; TGI [58]: 1070 nM
